Measured values published in US5536723A, “S-nitroso derivatives of hydrazinoacetic acids, 1-[(acylthio and (mercapto)-1-oxoalkyl]-1,2,34-Tetrahydroquinoline-2-carboxylic acids and alanyl prolines and isoquinolines” (Brigham & Women's Hospital, priority 1994, dated 1996).
“Also recorded” adds a separate entry of the source. Each block holds one compound with its values, some of them ahead of it.

Experiments:
bovine femoral artery = assay: relaxation of isolated bovine femoral artery rings contracted with norepinephrine; conditions: methylene blue 10^-5 M; FIG. 4
Description: FIG. 2 depicts a graph showing the effect of S-nitrosocaptopril on the contraction of bovine femoral arteries to norepinephrine.
(§1) Blood Vessel Preparation. Bovine coronary or femoral arteries were obtained from an abattoir immediately after sacrifice of two- to four-week-old calves. Immediately after removal, the vessel was placed in ice-cold physiologic salt solution (PSS) containing 118.3 mM NaCl, 4.7 mM KCl, 2.5 mM CaCl2, 1.2 mM MgSO4, 1.2 mM KH2 PO4, 25.0 mM NaHCO3, 11.1 mM glucose, and 0.026 mM calcium disodium (ethylenedinitrilo)-tetraacetate. The vessels were then cleaned of adventitial tissue and cut into rings of approximately 5 mm lengths. When called for by the protocol, endothelium was removed from a ring by gently rubbing the luminal surface with a watchmaker's forceps. Vascular rings with intact endothelium were then suspended in organ chambers containing 25 ml of PSS at 37° aerated with 95% O2 -5% CO2. The rings were connected to force transducers (Grass FT03C, Quincy, Mass.) and changes in isometric force recorded continuously (Grass Polygraph Model 79B) over a period of 90 minutes. The optimal length-tension relationship was determined for each ring by observing the response to 10^-6 M norepinephrine after increments in tension of 0.5 gm. The functional integrity of the endothelium was assessed by contracting the vessel with 10^-6 M norepinephrine and then observing the response to 3×10^-7 M acetylcholine chloride.
Vascular ring segments with intact endothelium were […] contracted with a concentration of norepinephrine inducing a half-maximal response. After a stable contraction had been achieved, the tissue was exposed to increasing concentrations of S-nitrosocaptopril in cumulative half-log increments. […] The apparent IC50 is approximately 1 μM.

bovine coronary artery = assay: relaxation of isolated bovine coronary artery rings contracted with potassium chloride
Text: FIG. 5 depicts a graph showing the relaxation to sodium nitroprusside in the bovine coronary artery in the presence (o; n=7) or absence (; n:12) of a subthreshhold dose of S-nitrosocaptopril. The data are expressed as a percentage of the initial tension generated by potassium chloride (4×10^-2 M; coronary arteries) and are shown as mean ±SEM in each group.
as §1
Thus, to study vasodilating agents in this tissue the vessels were first contracted with potassium chloride (40 mM). Relaxations are expressed as a percent of the concentration to 40 mM potassium chloride.
Relaxations to S-nitrosocaptopril were inhibited by the antagonist of soluble guanylate cyclase, methylene blue (FIG. 4). Sodium nitroprusside induced dose-dependent relaxations of contractions to potassium chloride. The relaxation to sodium nitroprusside was inhibited by subthreshold doses of S-nitrosocaptopril (FIG. 5).

[1] = tested on: bovine femoral artery, contraction to angiotensin I; assay: contraction of the bovine femoral artery to angiotensin I; conditions: for Contraction to Agonist: Angiotensin I
Description: The data are expressed as a percentage of the maximal response to norepinephrine (10^-6 M) and are shown as mean ±SEM in each group (n=7).
as §1

[2] = tested on: bovine femoral artery, contraction to angiotensin II; assay: contraction of the bovine femoral artery to angiotensin II; conditions: for Contraction to Agonist: Angiotensin II
Description: The data are expressed as a percentage of the maximal response to norepinephrine (10^-4 M) and are shown as mean ±SEM in each group (n=6).
as §1

[3] = -Log M 6, Sar 10^-7 M, * p < 0.05
[4] = -Log M 6.5, Sar 10^-7 M, * p < 0.05
[5] = -Log M 7, Sar 10^-7 M, * p < 0.05
[6] = -Log M 7.5, Sar 10^-7 M, * p < 0.05
[7] = -Log M 8, Sar 10^-7 M, * p < 0.05
[8] = saralasin, lower concentrations than 10^-8 M

Compound: CN(C)c1ccc2nc3ccc(=[N+](C)C)cc-3sc2c1 [methylene blue]
- effect of methylene blue on relaxations to S-nitrosocaptopril, femoral artery (in words) (bovine femoral artery): significantly less than control (p<0.05)
- effect of methylene blue on relaxations to S-nitrosocaptopril, coronary artery (in words) (bovine coronary artery; methylene blue 10^-5 M, FIG. 4): significantly less than control (p<0.05); also recorded: inhibited

Compound: [Cl-].[K+] [potassium chloride]
- stable contraction induced by potassium chloride (bovine coronary artery; 40 mM): 7.3 ± 4.3 g

Compound: CNCC(=O)N[C@@H](CCCN=C(N)N)C(=O)N[C@H](C(=O)N[C@@H](Cc1ccc(O)cc1)C(=O)N[C@H](C(=O)N[C@@H](Cc1cnc[nH]1)C(=O)N1CCC[C@H]1C(=O)N[C@@H](C)C(=O)O)C(C)C)C(C)C [saralasin]
- Contraction to Agonist [1, 3]: 0.9 ± 0.9 percentage of the maximal cont
- Contraction to Agonist ([1]; -Log M 6, Sar 10^-8 M): 35.5 ± 7.0 percentage of the maximal cont
- Contraction to Agonist ([1]; -Log M 6, Sar 10^-9 M): 25.6 ± 13.0 percentage of the maximal cont
- Contraction to Agonist [1, 4]: 0 percentage of the maximal cont
- Contraction to Agonist ([1]; -Log M 6.5, Sar 10^-8 M): 35.7 ± 22.1 percentage of the maximal cont
- Contraction to Agonist ([1]; -Log M 6.5, Sar 10^-9 M): 31.4 ± 10.7 percentage of the maximal cont
- Contraction to Agonist [1, 5]: 0 percentage of the maximal cont
- Contraction to Agonist ([1]; -Log M 7, Sar 10^-8 M, * p < 0.05): 19.6 ± 7.0 percentage of the maximal cont
- Contraction to Agonist ([1]; -Log M 7, Sar 10^-9 M): 33.0 ± 12.6 percentage of the maximal cont
- Contraction to Agonist [1, 6]: 0 percentage of the maximal cont
- Contraction to Agonist ([1]; -Log M 7.5, Sar 10^-8 M, * p < 0.05): 16.3 ± 9.4 percentage of the maximal cont
- Contraction to Agonist ([1]; -Log M 7.5, Sar 10^-9 M): 22.6 ± 10.1 percentage of the maximal cont
- Contraction to Agonist [1, 7]: 0 percentage of the maximal cont
- Contraction to Agonist ([1]; -Log M 8, Sar 10^-8 M): 7.9 ± 7.9 percentage of the maximal cont
- Contraction to Agonist ([1]; -Log M 8, Sar 10^-9 M): 3.9 ± 1.5 percentage of the maximal cont
- Contraction to Agonist ([1]; -Log M 8.5, Sar 10^-7 M): 0 percentage of the maximal cont
- Contraction to Agonist ([1]; -Log M 8.5, Sar 10^-8 M): 1.6 ± 1.6 percentage of the maximal cont
- Contraction to Agonist ([1]; -Log M 8.5, Sar 10^-9 M): 0 percentage of the maximal cont
- Contraction to Agonist ([1]; -Log M 9, Sar 10^-7 M): 0 percentage of the maximal cont
- Contraction to Agonist ([1]; -Log M 9, Sar 10^-8 M): 0 percentage of the maximal cont
- Contraction to Agonist ([1]; -Log M 9, Sar 10^-9 M): 0 percentage of the maximal cont
- effect of saralasin on contractions to angiotensin I (in words) ([1]; saralasin 10^-7 M): attenuated contractions
- effect of saralasin on contractions to angiotensin I (in words) ([1]; saralasin 10^-8 M): inhibited contractions to angiotensin I
- effect of saralasin on contractions to angiotensin I (in words) [1, 8]: no effect
- Contraction to Agonist [2, 3]: 6.0 percentage of the maximal cont
- Contraction to Agonist ([2]; -Log M 6, Sar 10^-8 M): 32.8 ± 21.0 percentage of the maximal cont
- Contraction to Agonist ([2]; -Log M 6, Sar 10^-9 M): 51.8 ± 18.8 percentage of the maximal cont
- Contraction to Agonist [2, 4]: 9.2 ± 5.3 percentage of the maximal cont
- Contraction to Agonist ([2]; -Log M 6.5, Sar 10^-8 M): 32.8 ± 20.4 percentage of the maximal cont
- Contraction to Agonist ([2]; -Log M 6.5, Sar 10^-9 M): 51.8 ± 18.8 percentage of the maximal cont
- Contraction to Agonist [2, 5]: 3.2 ± 1.8 percentage of the maximal cont
- Contraction to Agonist ([2]; -Log M 7, Sar 10^-8 M): 32.4 ± 17.3 percentage of the maximal cont
- Contraction to Agonist ([2]; -Log M 7, Sar 10^-9 M): 51.8 ± 18.8 percentage of the maximal cont
- Contraction to Agonist [2, 6]: 2.8 ± 2.8 percentage of the maximal cont
- Contraction to Agonist ([2]; -Log M 7.5, Sar 10^-8 M): 24.0 ± 13.8 percentage of the maximal cont
- Contraction to Agonist ([2]; -Log M 7.5, Sar 10^-9 M): 43.4 ± 16.9 percentage of the maximal cont
- Contraction to Agonist [2, 7]: 1.7 ± 1.7 percentage of the maximal cont
- Contraction to Agonist ([2]; -Log M 8, Sar 10^-8 M): 10.7 ± 8.1 percentage of the maximal cont
- Contraction to Agonist ([2]; -Log M 8, Sar 10^-9 M): 34.0 ± 12.9 percentage of the maximal cont
- Contraction to Agonist ([2]; -Log M 8.5, Sar 10^-7 M): 0 percentage of the maximal cont
- Contraction to Agonist ([2]; -Log M 8.5, Sar 10^-8 M): 0.9 ± 0.9 percentage of the maximal cont
- Contraction to Agonist ([2]; -Log M 8.5, Sar 10^-9 M): 18.5 ± 9.6 percentage of the maximal cont
- Contraction to Agonist ([2]; -Log M 9, Sar 10^-7 M): 0 percentage of the maximal cont
- Contraction to Agonist ([2]; -Log M 9, Sar 10^-8 M): 0 percentage of the maximal cont
- Contraction to Agonist ([2]; -Log M 9, Sar 10^-9 M): 2.4 ± 1.2 percentage of the maximal cont
- effect of saralasin on contractions to angiotensin II (in words) ([2]; saralasin 10^-7 M): attenuated contractions
- effect of saralasin on contractions to angiotensin II (in words) [2, 8]: no effect

Compound: angiotensin I: agonist; converted by ACE to angiotensin II by removal of the carboxy terminal His-Leu (DRVYIHPFHL; Angiotensin-1; UniProt P01019 25-34, looked up)
- Contraction to Agonist ([1]; -Log M 6, Sar 0 (control)): 45.3 ± 13.5 percentage of the maximal cont
- Contraction to Agonist ([1]; -Log M 6.5, Sar 0 (control)): 42.5 ± 13.4 percentage of the maximal cont
- Contraction to Agonist ([1]; -Log M 7, Sar 0 (control)): 38.6 ± 15.9 percentage of the maximal cont
- Contraction to Agonist ([1]; -Log M 7.5, Sar 0 (control)): 27.7 ± 12.7 percentage of the maximal cont
- Contraction to Agonist ([1]; -Log M 8, Sar 0 (control)): 12.6 ± 11.4 percentage of the maximal cont
- Contraction to Agonist ([1]; -Log M 8.5, Sar 0 (control)): 3.3 ± 5.9 percentage of the maximal cont
- Contraction to Agonist ([1]; -Log M 9, Sar 0 (control)): 0 percentage of the maximal cont
- maximum contraction response to angiotensin I ([1]; n=11): 4.4 ± 1.6 g

- EC50 ([2]; n=6, read-out: average ED50 of contraction to angiotensin II): 8.3 nM
Compound: angiotensin II: powerful pressor agent; agonist (DRVYIHPF; Angiotensin-2; UniProt P01019 25-32, looked up)
- Contraction to Agonist ([2]; -Log M 6, Sar 0 (control)): 57.9 ± 3.1 percentage of the maximal cont
- Contraction to Agonist ([2]; -Log M 6.5, Sar 0 (control)): 57.1 ± 3.1 percentage of the maximal cont
- Contraction to Agonist ([2]; -Log M 7, Sar 0 (control)): 47.2 ± 2.9 percentage of the maximal cont
- Contraction to Agonist ([2]; -Log M 7.5, Sar 0 (control)): 40.3 ± 2.6 percentage of the maximal cont
- Contraction to Agonist ([2]; -Log M 8, Sar 0 (control)): 28.8 ± 1.7 percentage of the maximal cont
- Contraction to Agonist ([2]; -Log M 8.5, Sar 0 (control)): 11.8 ± 1.1 percentage of the maximal cont
- Contraction to Agonist ([2]; -Log M 9, Sar 0 (control)): 0 percentage of the maximal cont
- maximum contraction response to angiotensin II ([2]; n=6): 6.4 ± 2.5 g
- maximum response to angiotensin II ([2]; without S-nitrosocaptopril, n=5): 55.8±6.9 % of the maximal response to norepinephrine
